Where a name gives a salt, the structure may show the parent alone. Read-outs that look alike come from different tables or passages of the source.

Here are results for 17 molecules from PMC8119466, “A screen of FDA-approved drugs identifies inhibitors of protein tyrosine phosphatase 4A3 (PTP4A3 or PRL-3)” (Scientific Reports, 2021).

Format in all cases: biochemical
One experiment addresses T1, recombinant PRL-2 (Homo sapiens, UniProt Q12974).
T1 construct: 6xHis (N, cleaved yes); made in house; host or cells: E. coli One Shot BL21 Star
T1 sequence (Q12974 1-167): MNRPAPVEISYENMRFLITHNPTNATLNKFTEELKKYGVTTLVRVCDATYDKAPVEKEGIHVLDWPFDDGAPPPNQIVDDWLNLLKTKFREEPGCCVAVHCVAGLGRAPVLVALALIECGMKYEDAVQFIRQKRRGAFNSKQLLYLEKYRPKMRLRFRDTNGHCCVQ
The experiment is described as follows: In vitro phosphatase assay (DiFMUP hydrolysis), PRL-2.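 Note: PRL-2 activity read as DiFMUP hydrolysis after 20 min at room temperature with drug, enzyme first pre-reduced at 4 °C for 20 min.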

The target in another experiment is T2, recombinant PRL-3 (Homo sapiens, UniProt O75365).
T2 construct: 6xHis (N, cleaved yes); made in house; host or cells: E. coli One Shot BL21 Star
T2 sequence (O75365 whole entry): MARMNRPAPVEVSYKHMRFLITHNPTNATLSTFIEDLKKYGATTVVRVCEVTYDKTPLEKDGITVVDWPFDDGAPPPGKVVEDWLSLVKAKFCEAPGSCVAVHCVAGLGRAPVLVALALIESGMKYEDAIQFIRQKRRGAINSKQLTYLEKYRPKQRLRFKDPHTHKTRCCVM
The experiment is described as follows: In vitro phosphatase assay (DiFMUP hydrolysis), PRL-3. Note: test concentration or dose not given here.

A further experiment has as its target T3, recombinant PRL-1 (Homo sapiens, UniProt Q93096).
T3 construct: 6xHis (N, cleaved yes); made in house; host or cells: E. coli One Shot BL21 Star
T3 sequence (Q93096 1-173): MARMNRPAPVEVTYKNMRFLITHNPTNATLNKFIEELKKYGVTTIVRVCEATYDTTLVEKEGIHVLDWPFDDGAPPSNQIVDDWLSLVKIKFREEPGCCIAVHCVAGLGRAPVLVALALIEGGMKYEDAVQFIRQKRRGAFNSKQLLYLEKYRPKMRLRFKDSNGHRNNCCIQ
The experiment is described as follows: In vitro phosphatase assay (DiFMUP hydrolysis), PRL-1. Note: test concentration or dose not given here.

[1] abbreviates: FDA-approved drug screen, activity compared to DMSO.
The mark [2] stands for this setting: FDA-approved drug screen, compared to DMSO.

As for `CN(C)CCc1c[nH]c2ccc(C[C@H]3COC(=O)N3)cc12` [Zolmitriptan], the “% Phosphatase Activity (compared to DMSO) PRL-2” value at recombinant PRL-2 (setting [1]) was determined as 86%. Besides, the “% Phosphatase Activity (compared to DMSO) PRL-3” value at recombinant PRL-3 (setting [1]) turned out to be 80%. The “% Phosphatase Activity (compared to DMSO) PRL-1” value on recombinant PRL-1 (setting [1]) worked out at 111%.

`Cc1cc(Nc2ncc(Cl)c(Nc3ccccc3S(=O)(=O)C(C)C)n2)c(OC(C)C)cc1C1CCNCC1` [LDK378]: on recombinant PRL-2 (setting [2]), the “% Phosphatase Activity (compared to DMSO) PRL-2” value turned out to be 92%. Further, the “% Phosphatase Activity (compared to DMSO) PRL-3” value on recombinant PRL-3 (setting [2]) is reported as 114%. Besides, the “% Phosphatase Activity (compared to DMSO) PRL-1” value on recombinant PRL-1 (setting [2]) is recorded as 99%.

For `CCCSc1ccc2nc(NC(=O)OC)[nH]c2c1` [Albendazole], the “% Phosphatase Activity (compared to DMSO) PRL-2” value at recombinant PRL-2 was 88%. Also, at recombinant PRL-3, the “% Phosphatase Activity (compared to DMSO) PRL-3” value is reported as 78%. Also, the “% Phosphatase Activity (compared to DMSO) PRL-1” value at recombinant PRL-1 is on record as 102%.

Turning to `CCCCCCCCCCCCCCCC[N+](C)(C)C.[Br-]` [Cetrimonium Bromide (CTAB)], the “% Phosphatase Activity (compared to DMSO) PRL-2” value at recombinant PRL-2 (setting [2]) came out at 103%. In addition, the “% Phosphatase Activity (compared to DMSO) PRL-3” value on recombinant PRL-3 (setting [2]) was 92%. At recombinant PRL-1 (setting [2]), the “% Phosphatase Activity (compared to DMSO) PRL-1” value is 97%.

As to `C[C@H](CCC(=O)O)[C@H]1CC[C@H]2[C@@H]3[C@@H](O)C[C@@H]4C[C@H](O)CC[C@]4(C)[C@H]3CC[C@]12C` [Ursodiol], the “% Phosphatase Activity (compared to DMSO) PRL-2” value at recombinant PRL-2 (setting [1]) is given as 79%. The “% Phosphatase Activity (compared to DMSO) PRL-3” value at recombinant PRL-3 (setting [1]) amounted to 77%. Besides, on recombinant PRL-1 (setting [1]), the “% Phosphatase Activity (compared to DMSO) PRL-1” value is 96%.

Regarding `CC(=O)N[C@@H](CS)C(=O)O` [Acetylcysteine], at recombinant PRL-2 (setting [2]), the “% Phosphatase Activity (compared to DMSO) PRL-2” value amounted to 99%. In addition, the “% Phosphatase Activity (compared to DMSO) PRL-3” value on recombinant PRL-3 (setting [2]) was 70%. The “% Phosphatase Activity (compared to DMSO) PRL-1” value at recombinant PRL-1 (setting [2]) was 89%.

For the molecule `C[C@@](Cc1ccc(O)c(O)c1)(NN)C(=O)O` [Carbidopa], the “% Phosphatase Activity (compared to DMSO) PRL-2” value at recombinant PRL-2 (setting [2]) is listed as 92%. For the same molecule, the “% Phosphatase Activity (compared to DMSO) PRL-3” value at recombinant PRL-3 (setting [2]) is on record as 94%. The “% Phosphatase Activity (compared to DMSO) PRL-1” value on recombinant PRL-1 (setting [2]) amounted to 68%.

In the case of `CC(C)(C#N)c1cc(Cn2cncn2)cc(C(C)(C)C#N)c1` [Anastrozole], the “% Phosphatase Activity (compared to DMSO) PRL-2” value at recombinant PRL-2 (setting [2]) is 122%. Also, on recombinant PRL-3 (setting [2]), the “% Phosphatase Activity (compared to DMSO) PRL-3” value came to 96%. Besides, on recombinant PRL-1 (setting [2]), the “% Phosphatase Activity (compared to DMSO) PRL-1” value came to 106%.

With `Cc1c(C(=O)Nc2ccc(N3C[C@@H](C)O[C@@H](C)C3)nc2)cccc1-c1ccc(OC(F)(F)F)cc1` [LDE225 (NVP-LDE225,Erismodegib)], the “% Phosphatase Activity (compared to DMSO) PRL-2” value on recombinant PRL-2 (setting [2]) turned out to be 111%. The “% Phosphatase Activity (compared to DMSO) PRL-3” value at recombinant PRL-3 (setting [2]) is recorded as 83%. Also, the “% Phosphatase Activity (compared to DMSO) PRL-1” value at recombinant PRL-1 (setting [2]) was 97%.

Turning to `CC(C)C[C@H](NC(=O)[C@H](CCc1ccccc1)NC(=O)CN1CCOCC1)C(=O)N[C@@H](Cc1ccccc1)C(=O)N[C@@H](CC(C)C)C(=O)[C@@]1(C)CO1` [Carfilzomib (PR-171)], at recombinant PRL-2 (setting [2]), the “% Phosphatase Activity (compared to DMSO) PRL-2” value is recorded as 88%. Also, at recombinant PRL-3 (setting [2]), the “% Phosphatase Activity (compared to DMSO) PRL-3” value worked out at 94%. Moreover, on recombinant PRL-1 (setting [2]), the “% Phosphatase Activity (compared to DMSO) PRL-1” value is listed as 97%.

On to `O=C(O[C@H]1C[C@H]2CC[C@@H](C1)[N+]21CCCC1)C(O)(c1ccccc1)c1ccccc1` [Trospium chloride], for which the “% Phosphatase Activity (compared to DMSO) PRL-2” value on recombinant PRL-2 (setting [1]) came to 109%. Further, the “% Phosphatase Activity (compared to DMSO) PRL-3” value at recombinant PRL-3 (setting [1]) was determined as 83%. In addition, the “% Phosphatase Activity (compared to DMSO) PRL-1” value at recombinant PRL-1 (setting [1]) is 109%.

For `COc1ccccc1OCC(O)COC(N)=O` (stereo not drawn) [Methocarbamol], at recombinant PRL-2 (setting [2]), the “% Phosphatase Activity (compared to DMSO) PRL-2” value is reported as 91%. For the same molecule, on recombinant PRL-3 (setting [2]), the “% Phosphatase Activity (compared to DMSO) PRL-3” value worked out at 100%. Besides, the “% Phosphatase Activity (compared to DMSO) PRL-1” value at recombinant PRL-1 (setting [2]) worked out at 92%.

Turning to `Cc1cccc(C)c1N=C1NCCCS1` [Xylazine HCl], the “% Phosphatase Activity (compared to DMSO) PRL-2” value on recombinant PRL-2 worked out at 112%. For the same molecule, the “% Phosphatase Activity (compared to DMSO) PRL-3” value on recombinant PRL-3 is given as 91%. Moreover, the “% Phosphatase Activity (compared to DMSO) PRL-1” value at recombinant PRL-1 is listed as 110%.

As for `CCOC(=O)C1=C(COCCN)NC(C)=C(C(=O)OC)C1c1ccccc1Cl` (stereo not drawn) [Amlodipine], at recombinant PRL-2 (setting [2]), the “% Phosphatase Activity (compared to DMSO) PRL-2” value was 157%. Further, on recombinant PRL-3 (setting [2]), the “% Phosphatase Activity (compared to DMSO) PRL-3” value is recorded as 149%. Further, the “% Phosphatase Activity (compared to DMSO) PRL-1” value on recombinant PRL-1 (setting [2]) was 145%.

Regarding `Cc1nc2n(c(=O)c1CCN1CCC(c3noc4cc(F)ccc34)CC1)CCCC2O` (stereo not drawn) [Paliperidone], the “% Phosphatase Activity (compared to DMSO) PRL-2” value at recombinant PRL-2 (setting [2]) is on record as 103%. The “% Phosphatase Activity (compared to DMSO) PRL-3” value on recombinant PRL-3 (setting [2]) was found to be 75%. In addition, the “% Phosphatase Activity (compared to DMSO) PRL-1” value on recombinant PRL-1 (setting [2]) stood at 102%.

On to `CC(C)NCC(O)c1ccc(O)c(O)c1.Cl` (stereo not drawn) [Isoprenaline HCl], for which the “% Phosphatase Activity (compared to DMSO) PRL-2” value at recombinant PRL-2 (setting [2]) stood at 124%. Also, the “% Phosphatase Activity (compared to DMSO) PRL-3” value on recombinant PRL-3 (setting [2]) was found to be 94%. The “% Phosphatase Activity (compared to DMSO) PRL-1” value at recombinant PRL-1 (setting [2]) is 114%.

Regarding `C[C@@H]1CCN(C(=O)CC#N)C[C@@H]1N(C)c1ncnc2[nH]ccc12.O=C(O)CC(O)(CC(=O)O)C(=O)O` [Tofacitinib (CP-690550) Citrate], at recombinant PRL-2 (setting [1]), the “% Phosphatase Activity (compared to DMSO) PRL-2” value came out at 91%. In addition, at recombinant PRL-3 (setting [1]), the “% Phosphatase Activity (compared to DMSO) PRL-3” value came to 104%. Besides, at recombinant PRL-1 (setting [1]), the “% Phosphatase Activity (compared to DMSO) PRL-1” value is reported as 109%.
